# Measurements taken from US20090036509A1, “N-(Ortho-Phenyl)-1-Methyl -3-Trifluoromethlpyrazole-4-Carboxanilides and Their Use as Fungicides” (BASF Aktiengesellschaft, priority 2004, published 2009).
# Key:
# Botrytis cinerea = test: Activity against gray mold on bell pepper leaves caused by Botrytis cinerea, protective application; type: in vivo; conditions: visual rating after 5 days, untreated 90%
# Experimental: The active compounds were prepared as a stock solution with 25 mg of active compound which was made up to 10 ml with a mixture of acetone and/or DMSO and the emulsifier Uniperol® EL (wetting agent having emulsifying and dispersing action based on ethoxylated alkyl phenols) in a volume ratio solvent/emulsifier of 99 to 1. The solution was then made up to 100 ml with water. This stock solution was diluted to the active compound concentrations stated below using the solvent/emulsifier/water mixture described. Activity Against Gray Mold on Bell Pepper Leaves Caused by Botrytis Cinerea Protective Application Bell pepper seedlings of the cultivar “Neusiedler Ideal Elite” were, after 2-3 leaves were well developed, sprayed to runoff point with an aqueous suspension having the concentration of active compounds stated below. The next day, the treated plants were inoculated with a spore suspension of Botrytis cinerea which contained 1.7×10^6 spores/ml in a 2% strength aqueous biomalt solution. The test plants were then placed in a dark climatized chamber at 22-24° C. and high atmospheric humidity. After 5 days, the extent of the fungal infection on the leaves could be determined visually in %. […]
# Puccinia recondita = test: Curative activity against brown rust of wheat caused by Puccinia recondita; type: in vivo; conditions: wheat seedlings sprayed 1 day after inoculation, rated after 7 days, untreated 90%; for Infection in % at 4 ppm using PUCCRT K1: Use Example 2
# Experimental: The active compounds were prepared as a stock solution with 25 mg of active compound which was made up to 10 ml with a mixture of acetone and/or DMSO and the emulsifier Uniperol® EL (wetting agent having emulsifying and dispersing action based on ethoxylated alkyl phenols) in a volume ratio solvent/emulsifier of 99 to 1. The solution was then made up to 100 ml with water. This stock solution was diluted to the active compound concentrations stated below using the solvent/emulsifier/water mixture described. Curative Activity Against Brown Rust of Wheat Caused by Puccinia Recondita Leaves of potted wheat seedlings of the cultivar “Kanzler” were inoculated with a spore suspension of brown rust (Puccinia recondita). The pots were then placed in a chamber with high atmospheric humidity (90 to 95%) and at 20-22° C. for 24 hours. During this time, the spores germinated and the germ tubes penetrated into the leaf tissue. The next day, the infected plants were sprayed to runoff point with an aqueous suspension having the concentration of active compounds stated below. The suspension or emulsion was prepared as described above. After the spray coating had dried on, the test plants were cultivated in a greenhouse at temperatures between 20 and 22° C. and at 65 to 70% relative atmospheric humidity for 7 days. The extent of the rust fungus development on the leaves was then determined. Curative Activity Against Brown Rust of Wheat Caused by Puccinia Recondita Leaves of potted wheat seedlings of the cultivar “Kanzler” were inoculated with a spore suspension of brown rust (Puccinia recondita). The pots were then placed in a chamber with high atmospheric humidity (90 to 95%) and at 20-22° C. for 24 hours During this time, the spores germinated and the germ tubes penetrated into the leaf tissue. The next day, the infected plants were sprayed to runoff point with an aqueous suspension having the concentration of active compounds stated below. The suspension or emulsion was prepared as described above. After the spray coating had dried on, the test plants were cultivated in a greenhouse at temperatures between 20 and 22° C. and at 65 to 70% relative atmospheric humidity for 7 days. The extent of the rust fungus development on the leaves was then determined. Curative Activity Against Brown Rust of Wheat Caused by Puccinia Recondita Leaves of potted wheat seedlings of the cultivar “Kanzler” were inoculated with a spore suspension of brown rust (Puccinia recondita). The pots were then placed in a chamber with high atmospheric humidity (90 to 95%) and at 20-22° C. for 24 hours. During this time, the spores germinated and the germ tubes penetrated into the leaf tissue. The next day, the infected plants were sprayed to runoff point with an aqueous suspension having the concentration of active compounds stated below. The suspension or emulsion was prepared as described above. After the spray coating had dried on, the test plants were cultivated in a greenhouse at temperatures between 20 and 22° C. and at 65 to 70% relative atmospheric humidity for 7 days. The extent of the rust fungus development on the leaves was then determined.
# [1] = Use Example 1, bell pepper seedlings sprayed 1 day before inoculation
# [2] = Use Example 4, bell pepper seedlings sprayed 1 day before inoculation
compound,measurement,setting,value
Cn1cc(C(=O)Nc2ccccc2-c2ccc(F)c(F)c2)c(C(F)(F)F)n1 [Comp. 67.4],Infection in % at 4 ppm using BOTRCI P1,Botrytis cinerea; [1],40%
same,Infection in % at 4 ppm using PUCCRT K1,Puccinia recondita,5%
COc1ccc(-c2ccccc2NC(=O)c2cn(C)nc2C(F)(F)F)cc1 [Comp. 38of EP-A05 89 301],Infection in % at 250 ppm using PUCCRT K1,Puccinia recondita; Use Example 3,60%
COc1ccc(-c2ccccc2NC(=O)c2cn(C)nc2C(F)(F)F)c(F)c1 [Comp. 67.14],Infection in % at 250 ppm using PUCCRT K1,Puccinia recondita; Use Example 3,7%
Cc1ccccc1-c1ccccc1NC(=O)c1cn(C)nc1C(F)(F)F [Comp. 41of EP-A05 89 301],Infection in % at 4 ppm using BOTRCI P1,Botrytis cinerea; [2],25%
same,Infection in % at 250 ppm using PUCCRT K1,Puccinia recondita; Use Example 5,60%
Cc1cc(Cl)ccc1-c1ccccc1NC(=O)c1cn(C)nc1C(F)(F)F [67.8],Infection in % at 4 ppm using BOTRCI P1,Botrytis cinerea; [2],0%
same,Infection in % at 250 ppm using PUCCRT K1,Puccinia recondita; Use Example 5,0%
Cn1cc(C(=O)Nc2ccccc2-c2ccc(F)cc2)c(C(F)(F)F)n1 [Comp. 37of EP-A05 89 301],Infection in % at 4 ppm using BOTRCI P1,Botrytis cinerea; [1],70%
same,Infection in % at 4 ppm using PUCCRT K1,Puccinia recondita,30%
